# Source: patent US20230365541A1, “INHIBITOR OF ENHANCER OF ZESTE HOMOLOGUE 2, AND USE THEREOF” (HAISCO PHARMACEUTICALS PTE. LTD., priority 2020, published 2023)
# Key:
# [1] = tested on: SU-DHL-6 cells; test: SU-DHL-6 cell proliferation test; type: cell-based, human; details: incubated for 14 days
# Method in brief: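 SU-DHL-6 B-cell lymphoma cells seeded at 1×10^5 cells/mL in RPMI-1640/10% FBS with compound at 37 °C. Every 3-4 days cells were counted, reset to 1×10^5 cells/mL and re-dosed; IC50 derived from counts at day 14.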
# [2] = target: EZH2 (Homo sapiens (Human), UniProt Q15910); test: Test method for EZH2 enzyme activity; type: biochemical; details: H3K27(21-44) and [3H]-SAM
# Method in brief: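 EZH2 (3 nM final) preincubated 15 min with compound in Tris-HCl pH 9.0 buffer, then H3K27(21-44) peptide and [3H]-SAM added (mixture at 200 nM and 100 nM) for 60 min at room temperature. Reaction quenched with cold SAM; flashplate scintillation read, inhibition normalized to controls and IC50 fitted.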
# [3] = Pharmacokinetic experiment in monkeys; type: in vivo; details: male, cynomolgus monkey, plasma
# Method: Experimental animal: twelve cynomolgus monkeys, 2.4-5.9 kg, male, 3-5.5 years old, purchased from Suzhou Xishan Zhongke Laboratory Animal Co., Ltd, with the production license number of SCXK(SU) 2018-0001.
# Before and after the administration, 1.0 mL of blood was taken from the front and rear limb veins of the animals, and placed in an EDTAK2 centrifuge tube. […] Before analysis and detection, all plasma samples were stored at −80° C.
# [4] = target: CYP1A2 (Homo sapiens (Human), UniProt P05177); test: Cytochrome P450 isozyme inhibition experiment, CYP1A2; type: in vitro ADME; details: human liver microsomes
# Method: (§1) Experimental objective: the inhibitory effects of test compounds on the activity of human liver microsomal cytochrome P450 isozymes (CYP1A2, CYP2C9, CYP2C19, CYP2D6 and CYP3A4) were determined. […]
# [5] = target: CYP2C9 (Homo sapiens (Human), UniProt P11712); test: Cytochrome P450 isozyme inhibition experiment, CYP2C9; type: in vitro ADME; details: human liver microsomes
# Method: as §1
# [6] = target: CYP2C19 (Homo sapiens (Human), UniProt P33261); test: Cytochrome P450 isozyme inhibition experiment, CYP2C19; type: in vitro ADME; details: human liver microsomes
# Method: as §1
# [7] = target: CYP2D6 (Homo sapiens (Human), UniProt P10635); test: Cytochrome P450 isozyme inhibition experiment, CYP2D6; type: in vitro ADME; details: human liver microsomes
# Method: as §1
# [8] = target: CYP3A4 (Homo sapiens (Human), UniProt P08684); test: Cytochrome P450 isozyme inhibition experiment, CYP3A4; type: in vitro ADME; details: human liver microsomes, CYP3A4-M
# Method: as §1
# [9] = Pharmacokinetic experiment in mice (intravenous 5 mg/kg or intragastric 30 mg/kg); type: in vivo; details: male, ICR, mouse, plasma; for AUC: read-out: AUC
# Method: The administration was performed according to table 5.
# The concentrations of the compounds in EDTA-K2 anticoagulant plasma were determined by the LC-MS/MS method. The linear range of the standard curve of the compounds is 2-2000 ng/mL. After subjected to precipitating proteins with acetonitrile, the samples were analyzed by LC-MS/MS. The standard curve was subjected to a regression calculation using the weighted least square method (W=1/X^2), and quantified by calculating the ratio of test compound peak area to internal standard peak area.
# • (1) except to the blank sample, 400 μL of internal standard working solution (Verapamil internal standard concentration in precipitant acetonitrile is 10.0 ng/mL) was added to a 1.5 mL centrifuge tube containing 30 μL of standard curve samples and quality control samples; • 200 μL of internal standard working solution (Verapamil internal standard concentration in precipitant acetonitrile is 10.0 ng/mL) was added to a 1.5 mL centrifuge tube containing 15 μL of unknown samples; • and 400 μL of acetonitrile was added to the blank sample; • (2) the mixture was mixed evenly for about 1 min in a vortex mixer; • (3) centrifugation was carried out at 10000 rpm at 4C for 10 mi; • (4) 175 μL of the supernatant was transferred to a new 96-well polypropylene plate, and then the plate was sealed and placed in a 10° C. sample tray for injection.
# Sequence of CYP1A2 (P05177 whole entry): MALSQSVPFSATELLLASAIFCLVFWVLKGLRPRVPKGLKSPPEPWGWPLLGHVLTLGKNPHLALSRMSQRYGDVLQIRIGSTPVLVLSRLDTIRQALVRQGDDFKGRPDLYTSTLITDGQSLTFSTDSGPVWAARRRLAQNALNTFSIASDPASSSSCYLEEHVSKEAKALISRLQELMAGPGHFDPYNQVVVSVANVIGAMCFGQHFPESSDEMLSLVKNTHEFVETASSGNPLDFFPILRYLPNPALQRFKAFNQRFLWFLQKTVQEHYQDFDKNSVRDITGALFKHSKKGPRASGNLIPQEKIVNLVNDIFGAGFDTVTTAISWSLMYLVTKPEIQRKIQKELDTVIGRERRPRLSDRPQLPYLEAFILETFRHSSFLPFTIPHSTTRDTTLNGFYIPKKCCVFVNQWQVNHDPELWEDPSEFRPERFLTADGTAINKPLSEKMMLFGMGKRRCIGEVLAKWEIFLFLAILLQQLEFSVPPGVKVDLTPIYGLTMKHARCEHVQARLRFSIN
# Sequence of CYP2C9 (P11712 whole entry): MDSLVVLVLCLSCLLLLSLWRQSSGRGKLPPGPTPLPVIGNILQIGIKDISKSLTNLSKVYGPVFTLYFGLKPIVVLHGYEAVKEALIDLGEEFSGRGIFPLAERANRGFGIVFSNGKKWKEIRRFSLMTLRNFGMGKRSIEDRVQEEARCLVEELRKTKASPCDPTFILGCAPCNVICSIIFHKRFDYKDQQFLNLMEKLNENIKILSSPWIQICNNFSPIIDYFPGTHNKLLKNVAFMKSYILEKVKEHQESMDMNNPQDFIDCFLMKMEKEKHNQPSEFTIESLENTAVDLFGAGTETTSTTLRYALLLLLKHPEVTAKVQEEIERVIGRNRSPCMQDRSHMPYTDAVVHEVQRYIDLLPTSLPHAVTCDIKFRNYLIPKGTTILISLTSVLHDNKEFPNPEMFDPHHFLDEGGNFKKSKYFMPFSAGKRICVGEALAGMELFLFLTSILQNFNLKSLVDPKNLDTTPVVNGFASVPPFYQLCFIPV
# Sequence of CYP3A4 (P08684 whole entry): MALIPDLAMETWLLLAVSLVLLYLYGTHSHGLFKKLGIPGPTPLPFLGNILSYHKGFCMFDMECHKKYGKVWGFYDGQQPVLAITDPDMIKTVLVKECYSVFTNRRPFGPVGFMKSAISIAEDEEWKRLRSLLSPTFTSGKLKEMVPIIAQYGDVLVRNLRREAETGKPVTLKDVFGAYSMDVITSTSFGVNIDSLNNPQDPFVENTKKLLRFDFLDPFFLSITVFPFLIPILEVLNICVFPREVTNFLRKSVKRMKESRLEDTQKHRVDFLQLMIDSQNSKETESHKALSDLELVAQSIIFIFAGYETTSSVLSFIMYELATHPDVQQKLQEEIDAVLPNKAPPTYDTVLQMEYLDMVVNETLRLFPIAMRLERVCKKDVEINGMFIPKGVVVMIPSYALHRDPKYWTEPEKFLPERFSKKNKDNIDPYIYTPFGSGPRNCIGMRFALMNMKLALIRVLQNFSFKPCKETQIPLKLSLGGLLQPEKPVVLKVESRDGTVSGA
# Sequence of CYP2D6 (P10635 whole entry): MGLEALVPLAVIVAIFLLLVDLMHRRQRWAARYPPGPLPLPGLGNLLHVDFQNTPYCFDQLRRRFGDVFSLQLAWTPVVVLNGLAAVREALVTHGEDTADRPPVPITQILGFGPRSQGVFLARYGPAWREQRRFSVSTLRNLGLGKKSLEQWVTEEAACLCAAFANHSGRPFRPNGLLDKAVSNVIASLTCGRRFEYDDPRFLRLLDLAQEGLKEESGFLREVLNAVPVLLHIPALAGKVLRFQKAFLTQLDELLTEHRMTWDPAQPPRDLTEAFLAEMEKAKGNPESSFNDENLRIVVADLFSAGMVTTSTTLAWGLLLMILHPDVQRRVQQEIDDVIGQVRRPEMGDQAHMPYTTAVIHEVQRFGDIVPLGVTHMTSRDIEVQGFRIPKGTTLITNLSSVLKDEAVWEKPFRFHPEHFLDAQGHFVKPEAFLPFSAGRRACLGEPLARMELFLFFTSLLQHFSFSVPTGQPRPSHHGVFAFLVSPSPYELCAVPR
# Sequence of CYP2C19 (P33261 whole entry): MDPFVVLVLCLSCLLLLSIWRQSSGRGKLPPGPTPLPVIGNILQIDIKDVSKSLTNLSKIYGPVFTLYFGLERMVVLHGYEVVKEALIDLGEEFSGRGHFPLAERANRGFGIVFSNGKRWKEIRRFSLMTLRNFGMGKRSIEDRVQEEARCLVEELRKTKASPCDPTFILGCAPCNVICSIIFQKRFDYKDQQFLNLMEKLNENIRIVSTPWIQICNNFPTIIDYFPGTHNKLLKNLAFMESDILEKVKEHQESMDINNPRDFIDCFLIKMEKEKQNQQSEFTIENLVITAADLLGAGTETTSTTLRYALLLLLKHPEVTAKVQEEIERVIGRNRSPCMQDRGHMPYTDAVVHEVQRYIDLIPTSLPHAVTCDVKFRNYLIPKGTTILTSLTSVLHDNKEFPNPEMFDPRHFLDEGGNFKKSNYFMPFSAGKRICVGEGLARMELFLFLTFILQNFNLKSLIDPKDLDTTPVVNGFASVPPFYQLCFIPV
compound,measurement,setting,value
"[2H]C([2H])(NC(=O)c1cc(Cl)c2c(c1C)OC(C)(C1CCC(NC3COC3)CC1)O2)c1c(SC)cc(C)[nH]c1=O (single isomer, unassigned) [Compound 59, isomer 2, 7-chloro-2,4-dimethyl-N-((6-methyl-4-(methylthio)-2-oxo-1,2-dihydropyridin-3-yl)methyl-d2)-2-(4-(oxetan-3-ylamino)cyclohexyl)benzo[d][1,3]dioxole-5-carboxamide]",IC50,[1],0.00635 µM
same,IC50,[2],0.00044 µM
same,AUC,[3]; IV 3 mg/kg,1570 ± 39 ng·h/mL
same,C0,[3]; IV 3 mg/kg,2960 ± 601 ng/mL
same,half-life,[3]; IV 3 mg/kg,2.68 ± 0.14 h
same,AUC,[3]; PO 15 mg/kg,3310 ± 526 ng·h/mL
same,Cmax,[3]; PO 15 mg/kg,2320 ± 562 ng/mL
same,Tmax,[3]; PO 15 mg/kg,1 h
same,half-life,[3]; PO 15 mg/kg,5.11 ± 0.32 h
same,bioavailability,[3]; PO 15 mg/kg vs IV 3 mg/kg,42.1 ± 6.7%
same,IC50,[4],> 50 µM
same,IC50,[5],> 50 µM
same,IC50,[6],> 50 µM
same,IC50,[7],> 50 µM
same,IC50,[8],> 50 µM
"Cc1cc(C)c(CNC(=O)c2cc(Cl)c3c(c2C)O[C@@](C)([C@H]2CC[C@H](N(C)C)CC2)O3)c(=O)[nH]1 [Compound I-2, Valemetostat, reference compound]",half-life,"[9]; iv, 5 mg/kg, IV 5 mg/kg",6.31 h
same,AUC,"[9]; iv, 5 mg/kg, IV 5 mg/kg",1180 ng·h/mL
same,C0,"[9]; iv, 5 mg/kg, IV 5 mg/kg, read-out: C0",2140 ng/mL
same,half-life,"[9]; po, 30 mg/kg, PO 30 mg/kg",3.05 h
same,bioavailability,"[9]; po, 30 mg/kg, PO 30 mg/kg vs IV 5 mg/kg",9.08%
same,AUC,"[9]; po, 30 mg/kg, PO 30 mg/kg",645 ng·h/mL
same,Cmax,"[9]; po, 30 mg/kg, PO 30 mg/kg, read-out: Cmax",262 ng/mL
same,Tmax,"[9]; po, 30 mg/kg, PO 30 mg/kg, read-out: Tmax",0.25 h
same,IC50,[4],> 50 µM
same,IC50,[5],> 50 µM
same,IC50,[6],> 50 µM
same,IC50,[7],> 50 µM
same,IC50,[8],16.3 µM
